Like-named read-outs stand apart in the source and are kept apart here.
What was measured:
Assay in all cases: Test A pre/postemergence
Format in all cases: in vivo
[1] = test system: barnyardgrass (Echinochloa crus-galli); conditions: for pest or weed control at 125 g/ha / pest or weed control at 500 g/ha: Echinochloa crus-galli, 240 h, read-out: Plant response rating, Barnyardgrass
Outline: (§1)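 Ratings: 0 = no effect, 100 = complete control, assessed visually about ten days post-treatment in a greenhouse. Applications: soil-directed preemergence spray and postemergence spray on 1- to 2-leaf plants, both using a surfactant-containing non-phytotoxic solvent formulation.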

[2] = test system: giant foxtail (Setaria faberi); conditions: for pest or weed control at 125 g/ha / pest or weed control at 500 g/ha: Setaria faberi, 240 h, read-out: Plant response rating, Foxtail, Giant
Outline: as §1

[3] = test system: crabgrass (Digitaria sanguinalis); conditions: for pest or weed control at 125 g/ha / pest or weed control at 500 g/ha: Digitaria sanguinalis, 240 h, read-out: Plant response rating, Crabgrass
Outline: as §1

[4] = test system: velvetleaf (Abutilon theophrasti); conditions: for pest or weed control at 125 g/ha / pest or weed control at 500 g/ha: Abutilon theophrasti, 240 h, read-out: Plant response rating, Velvetleaf
Outline: as §1

[5] = test system: morningglory (Ipomoea spp.); conditions: for pest or weed control at 125 g/ha / pest or weed control at 500 g/ha: Ipomoea, 240 h, read-out: Plant response rating, Morningglory
Outline: as §1

[6] = test system: redroot pigweed (Amaranthus retroflexus); conditions: for pest or weed control at 125 g/ha / pest or weed control at 500 g/ha: Amaranthus retroflexus, 240 h, read-out: Plant response rating, Pigweed
Outline: as §1

[7] = Postemergence, 125 g ai/ha, 0 to 100 scale (0 no effect, 100 complete control)
[8] = Postemergence, 500 g ai/ha, 0 to 100 scale (0 no effect, 100 complete control)
[9] = Preemergence, 125 g ai/ha, 0 to 100 scale where 0 is no effect and 100 is complete control, approximately ten days
[10] = Preemergence, 500 g ai/ha, 0 to 100 scale where 0 is no effect and 100 is complete control, approximately ten days
[11] = post-emergence, Postemergence, 125 g ai/ha, 0 to 100 scale (0 no effect, 100 complete control)
[12] = post-emergence, Postemergence, 500 g ai/ha, 0 to 100 scale (0 no effect, 100 complete control)
[13] = pre-emergence, Preemergence, 125 g ai/ha, 0 to 100 scale where 0 is no effect and 100 is complete control, approximately ten days
[14] = pre-emergence, Preemergence, 500 g ai/ha, 0 to 100 scale where 0 is no effect and 100 is complete control, approximately ten days

COC(=O)c1nc(-c2ccc(S(C)(=O)=O)cc2)nc(N)c1Cl [Compound 122]
0: Plant response rating, Barnyardgrass [1, 7] | Plant response rating, Barnyardgrass [1, 8] | Plant response rating, Barnyardgrass [1, 9] | Plant response rating, Barnyardgrass [1, 10] | Plant response rating, Foxtail, Giant [2, 7] | Plant response rating, Foxtail, Giant [2, 8] | Plant response rating, Foxtail, Giant [2, 9] | Plant response rating, Foxtail, Giant [2, 10] | Plant response rating, Crabgrass [3, 7] | Plant response rating, Crabgrass [3, 8] | Plant response rating, Crabgrass [3, 9] | Plant response rating, Crabgrass [3, 10] | Plant response rating, Velvetleaf [4, 7] | Plant response rating, Velvetleaf [4, 8] | Plant response rating, Velvetleaf [4, 9] | Plant response rating, Velvetleaf [4, 10] | Plant response rating, Morningglory [5, 7] | Plant response rating, Morningglory [5, 8] | Plant response rating, Morningglory [5, 9] | Plant response rating, Morningglory [5, 10] | Plant response rating, Pigweed [6, 7] | Plant response rating, Pigweed [6, 8] | Plant response rating, Pigweed [6, 9] | Plant response rating, Pigweed [6, 10]

CCCCOCCOC(=O)c1nc(C2CC2)nc(N)c1Cl [Compound 139]
60: Plant response rating, Crabgrass [3, 7]
70: Plant response rating, Crabgrass [3, 8]
85: Plant response rating, Velvetleaf [4, 7]
80: Plant response rating, Barnyardgrass [1, 7] | Plant response rating, Foxtail, Giant [2, 7] | Plant response rating, Foxtail, Giant [2, 8] | Plant response rating, Foxtail, Giant [2, 9] | Plant response rating, Morningglory [5, 7]
100: Plant response rating, Morningglory [5, 10] | Plant response rating, Pigweed [6, 8] | Plant response rating, Pigweed [6, 10]
75: Plant response rating, Barnyardgrass [1, 9] | Plant response rating, Crabgrass [3, 9]
90: Plant response rating, Barnyardgrass [1, 8] | Plant response rating, Barnyardgrass [1, 10] | Plant response rating, Foxtail, Giant [2, 10] | Plant response rating, Crabgrass [3, 10] | Plant response rating, Velvetleaf [4, 8] | Plant response rating, Velvetleaf [4, 9] | Plant response rating, Velvetleaf [4, 10] | Plant response rating, Morningglory [5, 8] | Plant response rating, Morningglory [5, 9] | Plant response rating, Pigweed [6, 7] | Plant response rating, Pigweed [6, 9]

CCOC(=O)c1nc(-c2ccc3ccccc3c2)nc(N)c1Cl [Compound 127]
0%: pest or weed control at 125 g/ha [1, 11] | pest or weed control at 500 g/ha [1, 12] | pest or weed control at 125 g/ha [1, 13] | pest or weed control at 500 g/ha [1, 14] | pest or weed control at 125 g/ha [2, 11] | pest or weed control at 500 g/ha [2, 12] | pest or weed control at 125 g/ha [2, 13] | pest or weed control at 500 g/ha [2, 14] | pest or weed control at 125 g/ha [3, 11] | pest or weed control at 500 g/ha [3, 12] | pest or weed control at 125 g/ha [3, 13] | pest or weed control at 500 g/ha [3, 14] | pest or weed control at 125 g/ha [4, 13] | pest or weed control at 500 g/ha [4, 14] | pest or weed control at 125 g/ha [5, 11] | pest or weed control at 500 g/ha [5, 12] | pest or weed control at 125 g/ha [5, 13] | pest or weed control at 500 g/ha [5, 14] | pest or weed control at 125 g/ha [6, 11] | pest or weed control at 125 g/ha [6, 13] | pest or weed control at 500 g/ha [6, 14]
10%: pest or weed control at 500 g/ha [6, 12]
60%: pest or weed control at 125 g/ha [4, 11]
80%: pest or weed control at 500 g/ha [4, 12]

From patent US8802597B2, “Herbicidal pyrimidines” (E I du Pont de Nemours and Company, priority 2003, dated 2014)
